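Compound exposure: 48 hours, 5 concentrations, 96-well plates. Here, GI50 denotes the concentration required for 50% inhibition of growth.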 Activity calls are given as the source filed them. Rule as the data show it: active = GI50 up to about 1.1 µM and inactive = higher.
Legend:
Test in all cases: NCI tumour cell line growth inhibition, 48 h
COLO 205 = test system: COLO 205
DU-145 = test system: DU-145
HL-60 = test system: HL-60
HT-29 = test system: HT-29
MDA-MB-231 = test system: MDA-MB-231
MDA-N = test system: MDA-N
NCI-H522 = test system: NCI-H522
NCI/ADR-RES = test system: NCI/ADR-RES
OVCAR-8 = test system: OVCAR-8
PC-3 = test system: PC-3
RPMI-8226 = test system: RPMI-8226
RXF 393 = test system: RXF 393
SF-295 = test system: SF-295
SK-MEL-28 = test system: SK-MEL-28
SK-MEL-2 = test system: SK-MEL-2
SK-OV-3 = test system: SK-OV-3
SNB-19 = test system: SNB-19
SR = test system: SR
U-251 = test system: U-251
HCC 2998 = test system: HCC 2998

Measured: GI50

O=C(O)CN(CC(=O)O)c1ccccc1
inactive: COLO 205 > 100 µM | DU-145 > 100 µM | HL-60 44.5 µM | HT-29 59.4 µM | MDA-MB-231 92.3 µM | MDA-N 97.5 µM | NCI-H522 26.9 µM | NCI/ADR-RES > 100 µM | OVCAR-8 > 100 µM | PC-3 56 µM | RPMI-8226 35.6 µM | RXF 393 > 100 µM | SF-295 > 100 µM | SK-MEL-28 > 100 µM | SK-MEL-2 33.2 µM | SK-OV-3 > 100 µM | SNB-19 > 100 µM | SR > 100 µM | U-251 74.5 µM

COc1ccccc1NC(=S)Nc1cc(C)ccn1
inactive: COLO 205 > 100 µM | DU-145 > 100 µM | HL-60 > 100 µM | HT-29 > 100 µM | MDA-MB-231 20 µM | MDA-N > 100 µM | NCI-H522 > 100 µM | NCI/ADR-RES > 100 µM | OVCAR-8 > 100 µM | PC-3 > 100 µM | RPMI-8226 > 100 µM | RXF 393 96.6 µM | SF-295 > 100 µM | SK-MEL-28 > 100 µM | SK-MEL-2 > 100 µM | SK-OV-3 > 100 µM | SNB-19 > 100 µM | SR > 100 µM | U-251 > 100 µM

CCNC(=S)N/N=C/c1cc(OC)ccc1O
inactive: COLO 205 > 100 µM | DU-145 > 100 µM | HCC 2998 > 100 µM | HL-60 > 100 µM | HT-29 > 100 µM | MDA-MB-231 > 100 µM | MDA-N > 100 µM | NCI-H522 65.8 µM | NCI/ADR-RES 83.6 µM | OVCAR-8 > 100 µM | PC-3 56.2 µM | RXF 393 > 100 µM | SF-295 70.3 µM | SK-MEL-28 > 100 µM | SK-MEL-2 > 100 µM | SK-OV-3 > 100 µM | SNB-19 > 100 µM | SR 69.5 µM | U-251 61.4 µM

CC(=O)OCC1OC(n2c(Br)nc3c2c(=O)n(C)c(=O)n3C)C(OC(C)=O)C1OC(C)=O (stereo not given)
inactive: COLO 205 75 µM | DU-145 38.2 µM | HCC 2998 > 100 µM | HL-60 21.3 µM | HT-29 43.8 µM | MDA-MB-231 > 100 µM | MDA-N 33.6 µM | NCI-H522 45.9 µM | NCI/ADR-RES > 100 µM | OVCAR-8 42 µM | PC-3 45.8 µM | RPMI-8226 27.9 µM | RXF 393 > 100 µM | SF-295 > 100 µM | SK-MEL-28 > 100 µM | SK-OV-3 > 100 µM | SNB-19 74.8 µM | SR 19.9 µM | U-251 39.8 µM

Cc1ccc(CNc2ccc(Br)cc2)cc1
inactive: COLO 205 16.5 µM | DU-145 90.4 µM | HCC 2998 20.6 µM | HL-60 25.2 µM | HT-29 28.2 µM | MDA-MB-231 19.3 µM | MDA-N 25.4 µM | NCI-H522 17.7 µM | NCI/ADR-RES 29.4 µM | OVCAR-8 16.3 µM | PC-3 31.6 µM | RPMI-8226 3.44 µM | RXF 393 23.1 µM | SF-295 47.8 µM | SK-MEL-28 87.5 µM | SK-OV-3 53.8 µM | SNB-19 > 100 µM | SR 18.8 µM | U-251 28.1 µM

Reference: ChEMBL document CHEMBL1201862, “PubChem BioAssay data set” (2004)
